Activity calls are given as the source filed them. The rule behind the calls is not given here.
Test system: CCRIS mutagenicity, Ames/micronucleus/aberration tests
Assay: CCRIS mutagenicity studies
[1] = Test System: AMES SALMONELLA TYPHIMURIUM, Strain/Indicator: TA97, Metabolic Activation: NONE, Method: PREINCUBATION
[2] = Test System: AMES SALMONELLA TYPHIMURIUM, Strain/Indicator: TA98, Metabolic Activation: HAMSTER, LIVER, S-9, AROCLOR 1254 (10 OR 30%), Method: PREINCUBATION
[3] = Test System: AMES SALMONELLA TYPHIMURIUM, Strain/Indicator: TA98, Metabolic Activation: NONE, Method: PREINCUBATION
[4] = Test System: AMES SALMONELLA TYPHIMURIUM, Strain/Indicator: TA98, Metabolic Activation: NONE, Method: STANDARD PLATE
[5] = Test System: AMES SALMONELLA TYPHIMURIUM, Strain/Indicator: TA98, Metabolic Activation: RAT, LIVER, S-9, AROCLOR 1254, Method: STANDARD PLATE
[6] = Test System: AMES SALMONELLA TYPHIMURIUM, Strain/Indicator: TA100, Metabolic Activation: NONE, Method: PREINCUBATION
[7] = Test System: AMES SALMONELLA TYPHIMURIUM, Strain/Indicator: TA100, Metabolic Activation: NONE, Method: STANDARD PLATE
[8] = Test System: AMES SALMONELLA TYPHIMURIUM, Strain/Indicator: TA1538, Metabolic Activation: NONE, Method: STANDARD PLATE

With `CC(C)(C#N)C(C)(C)C#N` the mutagenic call (Test System: AMES SALMONELLA TYPHIMURIUM, Strain/Indicator: TA97, Metabolic Activation: HAMSTER, LIVER, S-9, AROCLOR 1254 (10 OR 30%), Method: PREINCUBATION) was “inactive; negative”, the mutagenic call [1] was “inactive; negative” and the mutagenic call (Test System: AMES SALMONELLA TYPHIMURIUM, Strain/Indicator: TA97, Metabolic Activation: RAT, LIVER, S-9, AROCLOR 1254 (10 OR 30%), Method: PREINCUBATION) was “inactive; negative”. For the same molecule, the mutagenic call (Test System: AMES SALMONELLA TYPHIMURIUM, Strain/Indicator: TA97, Method: PREINCUBATION) was “inactive; negative”, the mutagenic call [2] was “inactive; negative” and the mutagenic call (Test System: AMES SALMONELLA TYPHIMURIUM, Strain/Indicator: TA98, Metabolic Activation: HAMSTER, LIVER, S-9, AROCLOR 1254, Method: STANDARD PLATE) was “inactive; negative”. The mutagenic call [3] was “inactive; negative”, the mutagenic call [4] was “inactive; negative” and the mutagenic call (Test System: AMES SALMONELLA TYPHIMURIUM, Strain/Indicator: TA98, Metabolic Activation: RAT, LIVER, S-9, AROCLOR 1254 (10 OR 30%), Method: PREINCUBATION) was “inactive; negative”. For the same molecule, the mutagenic call [5] was “inactive; negative”, the mutagenic call (Test System: AMES SALMONELLA TYPHIMURIUM, Strain/Indicator: TA98, Method: PREINCUBATION) was “inactive; negative” and the mutagenic call (Test System: AMES SALMONELLA TYPHIMURIUM, Strain/Indicator: TA100, Metabolic Activation: HAMSTER, LIVER, S-9, AROCLOR 1254 (10 OR 30%), Method: PREINCUBATION) was “inactive; negative”. The mutagenic call (Test System: AMES SALMONELLA TYPHIMURIUM, Strain/Indicator: TA100, Metabolic Activation: HAMSTER, LIVER, S-9, AROCLOR 1254, Method: STANDARD PLATE) was “inactive; negative”, the mutagenic call [6] was “inactive; negative” and the mutagenic call [7] was “inactive; negative”. The mutagenic call (Test System: AMES SALMONELLA TYPHIMURIUM, Strain/Indicator: TA100, Metabolic Activation: RAT, LIVER, S-9, AROCLOR 1254 (10 OR 30%), Method: PREINCUBATION) was “inactive; negative”, the mutagenic call (Test System: AMES SALMONELLA TYPHIMURIUM, Strain/Indicator: TA100, Metabolic Activation: RAT, LIVER, S-9, AROCLOR 1254, Method: STANDARD PLATE) was “inactive; negative” and the mutagenic call (Test System: AMES SALMONELLA TYPHIMURIUM, Strain/Indicator: TA100, Method: PREINCUBATION) was “inactive; negative”. The mutagenic call (Test System: AMES SALMONELLA TYPHIMURIUM, Strain/Indicator: TA102, Metabolic Activation: NONE, Method: PREINCUBATION) was “inactive; negative”, the mutagenic call (Test System: AMES SALMONELLA TYPHIMURIUM, Strain/Indicator: TA102, Method: PREINCUBATION) was “inactive; negative” and the mutagenic call (Test System: AMES SALMONELLA TYPHIMURIUM, Strain/Indicator: TA1535, Metabolic Activation: HAMSTER, LIVER, S-9, AROCLOR 1254 (10 OR 30%), Method: PREINCUBATION) was “inactive; negative”. The mutagenic call (Test System: AMES SALMONELLA TYPHIMURIUM, Strain/Indicator: TA1535, Metabolic Activation: HAMSTER, LIVER, S-9, AROCLOR 1254, Method: STANDARD PLATE) was “inactive; negative”, the mutagenic call (Test System: AMES SALMONELLA TYPHIMURIUM, Strain/Indicator: TA1535, Metabolic Activation: NONE, Method: PREINCUBATION) was “inactive; negative” and the mutagenic call (Test System: AMES SALMONELLA TYPHIMURIUM, Strain/Indicator: TA1535, Metabolic Activation: NONE, Method: STANDARD PLATE) was “inactive; negative”. The mutagenic call (Test System: AMES SALMONELLA TYPHIMURIUM, Strain/Indicator: TA1535, Metabolic Activation: RAT, LIVER, S-9, AROCLOR 1254 (10 OR 30%), Method: PREINCUBATION) was “inactive; negative”, the mutagenic call (Test System: AMES SALMONELLA TYPHIMURIUM, Strain/Indicator: TA1535, Metabolic Activation: RAT, LIVER, S-9, AROCLOR 1254, Method: STANDARD PLATE) was “inactive; negative” and the mutagenic call (Test System: AMES SALMONELLA TYPHIMURIUM, Strain/Indicator: TA1537, Metabolic Activation: NONE, Method: STANDARD PLATE) was “inactive; negative”. The mutagenic call (Test System: AMES SALMONELLA TYPHIMURIUM, Strain/Indicator: TA1537, Metabolic Activation: RAT, LIVER, S-9, AROCLOR 1254, Method: STANDARD PLATE) was “inactive; negative”, the mutagenic call (Test System: AMES SALMONELLA TYPHIMURIUM, Strain/Indicator: TA1538, Metabolic Activation: HAMSTER, LIVER, S-9, AROCLOR 1254, Method: STANDARD PLATE) was “inactive; negative” and the mutagenic call [8] was “inactive; negative”. The mutagenic call (Test System: AMES SALMONELLA TYPHIMURIUM, Strain/Indicator: TA1538, Metabolic Activation: RAT, LIVER, S-9, AROCLOR 1254, Method: STANDARD PLATE) was “inactive; negative”, the mutagenic call (Test System: MOUSE LYMPHOMA, Strain/Indicator: L5178Y (TK+/TK-), Metabolic Activation: NONE, Method: SUSPENSION/PLATE) was “inactive; negative. reevaluation of results: negative” and the mutagenic call (Test System: MOUSE LYMPHOMA, Strain/Indicator: L5178Y (TK+/TK-), Metabolic Activation: RAT, LIVER, S-9, AROCLOR 1254, Method: SUSPENSION/PLATE) was “inactive; negative. reevaluation of results: negative”.
With `CC(=O)Oc1ccc(CO)cc1` the mutagenic call [7] was “inactive; negative”.
For `C=C1C[C@@]23CC[C@H]4[C@@](C)(CCC[C@@]4(C)C(=O)O[C@@H]4O[C@H](CO)[C@@H](O)[C@H](O)[C@H]4O)[C@@H]2CC[C@]1(O[C@@H]1O[C@H](CO)[C@@H](O)[C@H](O[C@@H]2O[C@H](CO)[C@@H](O)[C@H](O)[C@H]2O)[C@H]1O[C@@H]1O[C@H](CO)[C@@H](O)[C@H](O)[C@H]1O)C3`, the mutagenic call (Test System: AMES SALMONELLA TYPHIMURIUM, Strain/Indicator: TM677, Metabolic Activation: RAT, LIVER, S-9, AROCLOR 1254, Method: PREINCUBATION) was “inactive; negative”.
`COc1cccc2c1C(=O)c1c(O)c3c(c(O)c1C2=O)C[C@@](O)(C(=O)CO)C[C@@H]3O` was tested, and the mutagenic call [4] was “active; positive”, the mutagenic call [5] was “active; positive” and the mutagenic call [7] was “active; positive”. The mutagenic call [8] was “active; positive”.
With `O=[N+]([O-])c1ccccc1SS/C(Cl)=C(\Cl)C(Cl)=C(Cl)Cl` the mutagenic call (Test System: AMES SALMONELLA TYPHIMURIUM, Strain/Indicator: TA100(DNP6), Metabolic Activation: NONE, Method: PREINCUBATION) was “active; positive” and the mutagenic call (Test System: AMES SALMONELLA TYPHIMURIUM, Strain/Indicator: TA100(NR), Metabolic Activation: NONE, Method: PREINCUBATION) was “active; positive”.
In the case of `COC(=O)Nc1cccc(OC(=O)Nc2cccc(C)c2)c1`, the mutagenic call (Test System: AMES SALMONELLA TYPHIMURIUM, Strain/Indicator: TA97, Metabolic Activation: HAMSTER, LIVER, S-9, AROCLOR 1254 (30%), Method: PREINCUBATION) is reported as “inactive; negative”, the mutagenic call [1] is reported as “inactive; negative” and the mutagenic call (Test System: AMES SALMONELLA TYPHIMURIUM, Strain/Indicator: TA97, Metabolic Activation: RAT, LIVER, S-9, AROCLOR 1254 (30%), Method: PREINCUBATION) is reported as “inactive; negative”. For the same molecule, the mutagenic call [2] was “inactive; negative”, the mutagenic call (Test System: AMES SALMONELLA TYPHIMURIUM, Strain/Indicator: TA98, Metabolic Activation: HAMSTER, LIVER, S-9, AROCLOR 1254 (30%), Method: PREINCUBATION) was “active; positive” and the mutagenic call [3] was “inactive; negative”. The mutagenic call (Test System: AMES SALMONELLA TYPHIMURIUM, Strain/Indicator: TA98, Metabolic Activation: RAT, LIVER, S-9, AROCLOR 1254 (30%), Method: PREINCUBATION) was “inactive; negative”, the mutagenic call (Test System: AMES SALMONELLA TYPHIMURIUM, Strain/Indicator: TA100, Metabolic Activation: HAMSTER, LIVER, S-9, AROCLOR 1254 (30%), Method: PREINCUBATION) was “inactive; negative” and the mutagenic call [6] was “inactive; negative”. For the same molecule, the mutagenic call (Test System: AMES SALMONELLA TYPHIMURIUM, Strain/Indicator: TA100, Metabolic Activation: RAT, LIVER, S-9, AROCLOR 1254 (30%), Method: PREINCUBATION) was “inactive; negative”, the mutagenic call (Test System: AMES SALMONELLA TYPHIMURIUM, Strain/Indicator: TA1538, Metabolic Activation: HAMSTER, LIVER, S-9, AROCLOR 1254 (10%), Method: PREINCUBATION) was “inactive; negative” and the mutagenic call (Test System: AMES SALMONELLA TYPHIMURIUM, Strain/Indicator: TA1538, Metabolic Activation: HAMSTER, LIVER, S-9, AROCLOR 1254 (30%), Method: PREINCUBATION) was “active; positive”. The mutagenic call (Test System: AMES SALMONELLA TYPHIMURIUM, Strain/Indicator: TA1538, Metabolic Activation: NONE, Method: PREINCUBATION) was “inactive; negative” and the mutagenic call (Test System: AMES SALMONELLA TYPHIMURIUM, Strain/Indicator: TA1538, Metabolic Activation: RAT, LIVER, S-9, AROCLOR 1254 (30%), Method: PREINCUBATION) was “inactive; negative”.

Reference: PubChem BioAssay AID1259407 (Chemical Carcinogenesis Research Information System (CCRIS), 2018)
